# Values joined by “and” are separate entries in the source; they are usually repeats but may differ in a detail not shown here. Identical values can stand only once. Ends that are not written are not given here.
# How the values were obtained:
# [1] = tested on: immature monocyte-derived dendritic cells (moDC); assay: Multiplex xMAP assessment of cytokine production by immature monocyte-derived dendritic cells; assay type: cell-based, human
# Procedure: Immature monocyte-derived dendritic cells (moDC) were obtained from primary monocytes by a differentiation protocol involving a cytokine cocktail with IL-4 and GM-CSF [38]. For this, the monocytes were cultured in complete RPMI-1640 containing 10% HS, 1×AA solution, 500 U/mL rhIL-4 (Sci-Store, Moscow, Russia) and 800 U/mL rhGM-CSF (Sci-Store) for 3 days. Then, the cells were re-fed with the fresh medium with rhIL-4 and rhGM-CSF and cultured for 4 more days.
# (§1) For the study of the immunomodulatory properties of NaD1, monocytes and immature dendritic cells (moDC) were seeded into the wells of a 24-well plate at densities of 4 × 10^5 and 1.3 × 10^5 cells per well, respectively, in complete RPMI-1640 with 10% HS and AA solution. Then, 24 h later, the culture medium was replaced by a fresh one either with 2 μM NaD1 for stimulation of the cells or without if for the control wells. The cultures were kept in a humidified CO2-intubator for 24 h and then the samples of the culture media were taken and frozen.
# (§2) The absolute levels of 48 cytokines, chemokines and growth factors were determined at a protein level by multiplex xMAP technology (Luminex, Austin, TX, USA). For this, a MILLIPLEX Human Panel A kit (HCYTA-60K-PX48, Merck, Darmstadt, Germany) was used and the following 48 analytes were evaluated in two biological replications: sCD40L, EGF, CCL11/Eotaxin-1, FGF-basic/FGF-2, Flt-3 ligand, CX3CL1/Fractalkine, G-CSF, GM-CSF, GROα, IFNα2, IFN-γ, IL-1α, IL-1β, IL-1RA, IL-2, IL-3, IL-4, IL-5, IL-6, IL-7, CXCL8/IL-8, IL-9, IL-10, IL-12(p40), IL-12(p70), IL-13, IL-15, IL-17A/CTLA8, IL-17E/IL-25, IL-17F, IL-18, IL-22, IL-27, CXCL10/IP-10, CCL2/MCP-1, CCL7/MCP-3, M-CSF, CCL22/MDC, CXCL9/MIG, CCL3/MIP-1α, CCL4/MIP-1β, PDGF-AA, PDGF-AB/BB, CCL5/RANTES, TGF-α, TNF-α, TNF-β and VEGF-A. The fluorescent data were obtained on a MAGPIX system (Merck) operated with xPONENT 4.2 software (Merck). Final analysis was performed in MILLIPLEX Analyst v5.1 software (Merck).
# primary monocytes = assay: Multiplex xMAP assessment of cytokine production by primary monocytes; assay type: cell-based, human; conditions: monocytes + 2 μM NaD1, 24 h
# Text: Peripheral blood mononuclear cells (PBMCs) from healthy donors were purchased from American Type Culture Collection (ATCC PCS-800-011). Primary monocytes were isolated from PBMCs by adherence to the plastic surface. For that, PBMCs were thawed, resuspended in RPMI-1640 culture medium (Corning, Corning, NY, USA) without serum at a concentration of 2 × 10^6 cells/mL, seeded into the wells of a 24-well plate and placed in a humidified CO2-intubator (CellXpert C170i, Eppendorf, Hamburg, Germany) for 1 h. After that, non-adherent cells were removed from the wells and attached monocytes were thoroughly washed with PBS and cultured in a CO2-intubator in complete RPMI-1640 containing 10% human serum (HS Type AB, Capricorn Scientific, Ebsdorfergrund, Germany) and 1×antibiotic-antimycotic (1×AA) solution (Sigma, St. Louis, MO, USA).
# as §1, §2
substance,measurement,setting,value
"NaD1: Recombinant tobacco floral defensin NaD1 (UNIPROT Q8GTM0), obtained by heterologous expression in E. coli; FITC-labeled in the permeability assay (RECKTESNTFPGICITKPPCRKACISEKFTDGHCSKILRRCLCTKPC; cysteine pairing not given here; also: FITC label; UniProt Q8GTM0 26-72, looked up)",sCD40L absolute level,"[1]; immature moDCs + 2 μM NaD1, 24 h, two biological replications, untreated control 116.89",92.12 pg/mL
same,IL-2 absolute level,"[1]; moDCs + 2 μM NaD1, 24 h, control 0.51",<0.35↓ pg/ml
same,IFNg absolute level,"[1]; moDCs + 2 μM NaD1, 24 h, control 0.81",<0.61↓ pg/ml
same,IL-18 absolute level,"[1]; moDCs + 2 μM NaD1, 24 h, control 1.17",0.78 pg/mL
same,IL-10 absolute level,"[1]; moDCs + 2 μM NaD1, 24 h, control 1.76",<1.29↓ pg/ml
same,IL-6 absolute level,"[1]; moDCs + 2 μM NaD1, 24 h, control 1.92",0.85 pg/mL
same,IL-9 absolute level,"[1]; moDCs + 2 μM NaD1, 24 h, control 2.31",0.83 pg/mL
same,IP-10 absolute level,"[1]; moDCs + 2 μM NaD1, 24 h, control 2.51",2.51 pg/mL
same,GM-CSF absolute level,"[1]; moDCs + 2 μM NaD1, 24 h, control 3.8",2.87 pg/mL
same,IL-4 absolute level,"[1]; moDCs + 2 μM NaD1, 24 h, control 4.21",4.38 pg/mL
same,GROa absolute level,"[1]; moDCs + 2 μM NaD1, 24 h, control 5.3",2.88 pg/mL
same,EGF absolute level,"[1]; moDCs + 2 μM NaD1, 24 h, control 5.38",3.12 pg/mL
same,TGF-a absolute level,"[1]; moDCs + 2 μM NaD1, 24 h, control 6.04",4.68 pg/mL
same,IL-12 (p40) absolute level,"[1]; moDCs + 2 μM NaD1, 24 h, control 6.14",<2.07↓ pg/ml
same,G-CSF absolute level,"[1]; moDCs + 2 μM NaD1, 24 h, control 6.59",6.59 pg/mL
same,IL-13 absolute level,"[1]; moDCs + 2 μM NaD1, 24 h, control 10.99",<2.24↓ pg/ml
same,IL-1b absolute level,"[1]; moDCs + 2 μM NaD1, 24 h, control 12.11",5.8 pg/mL
same,IL-1a absolute level,"[1]; moDCs + 2 μM NaD1, 24 h, control 12.13",15.76 pg/mL
same,IFNa2 absolute level,"[1]; moDCs + 2 μM NaD1, 24 h, control 13.22",7.1 pg/mL
same,PDGF-AA absolute level,"[1]; moDCs + 2 μM NaD1, 24 h, control 14.68",12.15 pg/mL
same,Fractalkine absolute level,"[1]; moDCs + 2 μM NaD1, 24 h, control 26.94",20.9 pg/mL
same,TNFa absolute level,"[1]; moDCs + 2 μM NaD1, 24 h, control 45.9",30.64 pg/mL
same,MCP-3 absolute level,"[1]; moDCs + 2 μM NaD1, 24 h, control 62.22",44.12 pg/mL
same,MIP-1a absolute level,"[1]; moDCs + 2 μM NaD1, 24 h, control 62.72",35.36 pg/mL
same,MIG absolute level,"[1]; moDCs + 2 μM NaD1, 24 h, control 76.28",16.72 pg/mL
same,FGF-2 absolute level,"[1]; moDCs + 2 μM NaD1, 24 h, control 78.9",71.22 pg/mL
same,IL-27 absolute level,"[1]; moDCs + 2 μM NaD1, 24 h, control 80.06",68.79 pg/mL
same,M-GSF absolute level,"[1]; moDCs + 2 μM NaD1, 24 h, control 101.68",45.07 pg/mL
same,IL-1RA absolute level,"[1]; moDCs + 2 μM NaD1, 24 h, control 199.63",133 pg/mL and 133.58 pg/mL
same,MIP-1b absolute level,"[1]; moDCs + 2 μM NaD1, 24 h, control 204.09",120 pg/mL and 120.19 pg/mL
same,MCP-1 absolute level,"[1]; moDCs + 2 μM NaD1, 24 h, control 514.13",288 pg/mL and 288.04 pg/mL
same,MDC absolute level,"[1]; moDCs + 2 μM NaD1, 24 h, control 1484",1278 pg/mL
same,IL-8 absolute level,"[1]; moDCs + 2 μM NaD1, 24 h, control 1856",1037 pg/mL
same,IL-7 absolute level,"[1]; moDCs + 2 μM NaD1, 24 h, control <0.32",<0.32↓ pg/ml
same,IL-5 absolute level,"[1]; moDCs + 2 μM NaD1, 24 h, control <0.33",<0.33↓ pg/ml
same,FLT-3L absolute level,"[1]; moDCs + 2 μM NaD1, 24 h, control <0.61",<0.61↓ pg/ml
same,RANTES absolute level,"[1]; moDCs + 2 μM NaD1, 24 h, control <0.73",<0.73↓ pg/ml
same,IL-3 absolute level,"[1]; moDCs + 2 μM NaD1, 24 h, control <0.77",<0.77↓ pg/ml
same,TNFb absolute level,"[1]; moDCs + 2 μM NaD1, 24 h, control <0.78",<0.78↓ pg/ml
same,IL-17A absolute level,"[1]; moDCs + 2 μM NaD1, 24 h, control <1.00",<1.00↓ pg/ml
same,VEGFa absolute level,"[1]; moDCs + 2 μM NaD1, 24 h, control <1.44",<1.44↓ pg/ml
same,IL-12 (p70) absolute level,"[1]; moDCs + 2 μM NaD1, 24 h, control <1.79",<1.79↓ pg/ml
same,IL-15 absolute level,"[1]; moDCs + 2 μM NaD1, 24 h, control <1.84",<1.84↓ pg/ml
same,Eotaxin absolute level,"[1]; moDCs + 2 μM NaD1, 24 h, control <3.80",<3.80↓ pg/ml
same,PDGF-AB/BB absolute level,"[1]; moDCs + 2 μM NaD1, 24 h, control <5.75",<5.75↓ pg/ml
same,IL-22 absolute level,"[1]; moDCs + 2 μM NaD1, 24 h, control <9.00",<9.00↓ pg/ml
same,IL-17F absolute level,"[1]; moDCs + 2 μM NaD1, 24 h, control <16.98",<16.98↓ pg/ml
same,IL-17E/IL-25 absolute level,"[1]; moDCs + 2 μM NaD1, 24 h, control <25.82",<25.82↓ pg/ml
same,IL-2 absolute level,primary monocytes; control 0.36,0.51 pg/mL
same,TGF-a absolute level,primary monocytes; control 0.73,0.73 pg/mL
same,IFNg absolute level,primary monocytes; control 0.81,1.13 pg/mL
same,IL-5 absolute level,primary monocytes; control 0.87,<0.33↓ pg/ml
same,IL-4 absolute level,primary monocytes; control 1.25,1.44 pg/mL
same,IL-18 absolute level,primary monocytes; control 1.81,2.95 pg/mL
same,TNFb absolute level,primary monocytes; control 1.89,1.49 pg/mL
same,IL-12 (p40) absolute level,primary monocytes; control 2.8,2.8 pg/mL
same,IL-15 absolute level,primary monocytes; control 4.96,4.19 pg/mL
same,IL-9 absolute level,primary monocytes; control 5.17,3.78 pg/mL
same,IL-1a absolute level,primary monocytes; control 5.33,7.2 pg/mL
same,IL-10 absolute level,primary monocytes; control 6.18,6.66 pg/mL
same,G-CSF absolute level,primary monocytes; control 10.38,6.59 pg/mL
same,IL-13 absolute level,primary monocytes; control 10.99,5.29 pg/mL
same,IL-1b absolute level,primary monocytes; control 12.11,12.11 pg/mL
same,EGF absolute level,primary monocytes; control 12.18,14.11 pg/mL
same,IFNa2 absolute level,primary monocytes; control 13.22,18.46 pg/mL
same,IL-6 absolute level,primary monocytes; control 27.82,26.88 pg/mL
same,MIP-1a absolute level,primary monocytes; control 29.35,27.88 pg/mL
same,MIP-1b absolute level,primary monocytes; control 29.57,34.19 pg/mL
same,PDGF-AA absolute level,primary monocytes; control 35.56,43.29 pg/mL
same,Fractalkine absolute level,primary monocytes; control 41.58,32.26 pg/mL
same,FGF-2 absolute level,primary monocytes; control 45.68,71.22 pg/mL
same,VEGFa absolute level,primary monocytes; control 54.1,52.47 pg/mL
same,TNFa absolute level,primary monocytes; control 77.73,79.94 pg/mL
same,MCP-1 absolute level,primary monocytes; control 82.06,75.95 pg/mL
same,MCP-3 absolute level,primary monocytes; control 120.38,119.63 pg/mL
same,IL-27 absolute level,primary monocytes; control 121.25,94.48 pg/mL
same,RANTES absolute level,primary monocytes; control 184.29,402.83 pg/mL
same,IL-1RA absolute level,primary monocytes; control 204.3,204.3 pg/mL
same,IP-10 absolute level,primary monocytes; control 290.24,390.23 pg/mL
same,GROa absolute level,primary monocytes; control 342.86,261.06 pg/mL
same,MDC absolute level,primary monocytes; control 879.89,759.82 pg/mL
same,PDGF-AB/BB absolute level,primary monocytes; control 984.71,1457 pg/mL
same,MIG absolute level,primary monocytes; control 1021,1301 pg/mL
same,IL-8 absolute level,primary monocytes; control 9181,6023 pg/mL
same,IL-7 absolute level,primary monocytes; control <0.32,<0.32↓ pg/ml
same,FLT-3L absolute level,primary monocytes; control <0.61,0.69 pg/mL
same,IL-3 absolute level,primary monocytes; control <0.77,<0.77↓ pg/ml
same,IL-17A absolute level,primary monocytes; control <1.00,<1.00↓ pg/ml
same,GM-CSF absolute level,primary monocytes; control <1.30,<1.30↓ pg/ml
same,IL-12 (p70) absolute level,primary monocytes; control <1.79,<1.79↓ pg/ml
same,Eotaxin absolute level,primary monocytes; control <3.80,<3.80↓ pg/ml
same,IL-22 absolute level,primary monocytes; control <9.00,<9.00↓ pg/ml
same,IL-17F absolute level,primary monocytes; control <16.98,<16.98↓ pg/ml
same,M-GSF absolute level,primary monocytes; control <23.97,<23.97↓ pg/ml
same,IL-17E/IL-25 absolute level,primary monocytes; control <25.82,<25.82↓ pg/ml
same,sCD40L absolute level,"primary monocytes; two biological replications, untreated control 151.36",151.36 pg/mL
